Test system: 2,3-DPG blood levels
Assay: Phase 1 SAD/MAD: blood 2,3-DPG (LC-MS/MS) in healthy volunteers
Format: in vivo, human
Procedure: In this study, SAD/MAD cohorts are randomized (3 to 1) to receive Compound 1 or placebo (P). Compound 1 was evaluated first in 4 healthy SAD cohorts and 4 healthy MAD (14-day dosing period) cohorts. Based on the safety, and PK/PD profile from HS, Compound 1 is then evaluated in 1 SCD SAD cohort and 2 SCD MAD cohorts. Specifically, based on the safety and pharmacokinetic/pharmacodynamics (PK/PD) profile in healthy volunteer studies, Compound 1 is evaluated in patients (pts) with SCD, first in a single dose (SD or SAD) cohort and then in multiple-dose (MD or MAD) cohorts (14-day and 12-week). Safety assessments include AEs, vital signs, ECGs and laboratory parameters. PK/PD blood sampling was performed on Day 1 (SAD/MAD) and Day 14 (MAD) and up to 72 h after the last dose and at the end-of-study visit. PD parameters included 2,3-DPG, ATP, and p50 in all cohorts with additional PD studies (including oxygen scan) performed only in the SCD cohorts. PD parameters included 2,3-DPG, ATP, p50, RBC deformability with controlled deoxygenation and reoxygenation (Lorrca® oxygen scan) and varying osmolality (Lorrca® osmoscan)). To maintain study blind, pt identifiers were removed when needed.
In the SAD cohorts, the subjects' blood 2,3-DPG levels were measured periodically after dosing by a qualified LC-MS/MS method for the quantitation of 2,3-DPG in blood. Decreased 2,3-DPG blood levels were observed 6 hours following a single dose of Compound 1 at all dose levels (earlier timepoints were not collected). Maximum decreases in 2,3-DPG levels generally occurred ˜24 hours after the first dose with the reduction sustained ˜48-72 hr postdose. Table 15 reports the median percentage change in 2,3-DPG blood levels, relative to baseline, measured over time in healthy volunteers after a single dose of Compound 1 (200 mg, 400 mg, 700 mg, or 1000 mg) or placebo. Table 16 reports the mean percentage change in 2,3-DPG blood levels, relative to baseline, measured over time in healthy volunteers after a single dose of Compound 1 (200 mg, 400 mg, 700 mg, or 1000 mg). Accordingly, the median and mean reduction in the concentration of 2,3-DPG, relative to baseline, was at least about 30% at all dose levels tested 24 hours after administration of the single dose.
In the MAD cohorts, the subjects' blood 2,3-DPG levels were measured periodically after dosing by a qualified LC-MS/MS method for the quantitation of 2,3-DPG in blood. […] Table 18B reports the mean percentage change in 2,3-DPG blood levels, relative to baseline, measured over time after the first dose on days 1 and 14 in healthy volunteers who received daily doses of Compound 1 (100 mg BID, 200 mg BID, 300 mg BID, or 400 mg QD) for 14 days. Accordingly, the median and mean reduction in the concentration of 2,3-DPG, relative to baseline, was at least about 25% at all dose levels tested 24 hours after administration of the first dose on day 1 and at least about 40% at all dose levels tested 24 hours after administration of the first dose on day 14.
The following procedures are employed for the analysis of ATP and 2,3-DPG in human whole blood K2EDTA using a protein precipitation extraction procedure and analysis by LC-MS/MS.
The following procedures are used for sample extraction prior to analysis via LC-MS/MS. 15.0 μL of the calibration standards, quality controls, matrix blanks, and samples are aliquoted into a 96-well plate. 50.0 μL of the internal standard spiking solution is added to all samples on the plate, with the exception of the matrix blank samples; 50.0 μL of water is added to the matrix blank samples. Subsequently, 150 μL of water is added to all samples on the plate. The plate is then covered and agitated by vortex at high speed for ten minutes, after which 750 μL of methanol is added to all samples on the plate. The plate is covered and agitated by vortex for approximately 1 minute. The plate is then centrifuged at approximately 3500 RPM at approximately 4° C. for five minutes. […]

[1] = HV 100 mg BID, Day 1, 0 h after first daily dose
[2] = HV 100 mg BID, Day 1, 6 h after first daily dose
[3] = HV 100 mg BID, Day 1, 8 h after first daily dose
[4] = HV 100 mg BID, Day 1, 12 h after first daily dose
[5] = HV 100 mg BID, Day 1, 16 h after first daily dose
[6] = HV 100 mg BID, Day 1, 24 h after first daily dose
[7] = HV 100 mg BID, Day 14, 0 h after first daily dose
[8] = HV 100 mg BID, Day 14, 6 h after first daily dose
[9] = HV 100 mg BID, Day 14, 8 h after first daily dose
[10] = HV 100 mg BID, Day 14, 12 h after first daily dose
[11] = HV 100 mg BID, Day 14, 16 h after first daily dose
[12] = HV 100 mg BID, Day 14, 24 h after first daily dose
[13] = HV 100 mg BID, Day 14, 48 h after first daily dose
[14] = HV 100 mg BID, Day 14, 72 h after first daily dose
[15] = HV 200 mg BID, Day 1, 0 h after first daily dose
[16] = HV 200 mg BID, Day 1, 6 h after first daily dose
[17] = HV 200 mg BID, Day 1, 8 h after first daily dose
[18] = HV 200 mg BID, Day 1, 12 h after first daily dose
[19] = HV 200 mg BID, Day 1, 16 h after first daily dose
[20] = HV 200 mg BID, Day 1, 24 h after first daily dose
[21] = HV 200 mg BID, Day 14, 0 h after first daily dose
[22] = HV 200 mg BID, Day 14, 6 h after first daily dose
[23] = HV 200 mg BID, Day 14, 8 h after first daily dose
[24] = HV 200 mg BID, Day 14, 12 h after first daily dose
[25] = HV 200 mg BID, Day 14, 16 h after first daily dose
[26] = HV 200 mg BID, Day 14, 24 h after first daily dose
[27] = HV 200 mg BID, Day 14, 48 h after first daily dose
[28] = HV 200 mg BID, Day 14, 72 h after first daily dose
[29] = HV 300 mg BID, Day 1, 0 h after first daily dose
[30] = HV 300 mg BID, Day 1, 6 h after first daily dose
[31] = HV 300 mg BID, Day 1, 8 h after first daily dose
[32] = HV 300 mg BID, Day 1, 12 h after first daily dose
[33] = HV 300 mg BID, Day 1, 16 h after first daily dose
[34] = HV 300 mg BID, Day 1, 24 h after first daily dose
[35] = HV 300 mg BID, Day 14, 0 h after first daily dose
[36] = HV 300 mg BID, Day 14, 8 h after first daily dose
[37] = HV 300 mg BID, Day 14, 12 h after first daily dose
[38] = HV 300 mg BID, Day 14, 16 h after first daily dose
[39] = HV 300 mg BID, Day 14, 24 h after first daily dose
[40] = HV 300 mg BID, Day 14, 48 h after first daily dose
[41] = HV 300 mg BID, Day 14, 72 h after first daily dose
[42] = HV 400 mg QD, Day 1, 0 h after first daily dose
[43] = HV 400 mg QD, Day 1, 8 h after first daily dose
[44] = HV 400 mg QD, Day 1, 12 h after first daily dose
[45] = HV 400 mg QD, Day 1, 16 h after first daily dose
[46] = HV 400 mg QD, Day 1, 24 h after first daily dose
[47] = HV 400 mg QD, Day 14, 0 h after first daily dose

O=C([C@H](CO)c1ccccc1)N1CC2=C(C1)CN(S(=O)(=O)c1cnc3c(c1)OCCO3)C2 (single isomer, unassigned) [Compound 1]
Mean Percentage Change in 2,3-DPG Levels [1]: 0%
Median Percentage Change in 2,3-DPG Levels [1]: 0.0%
Mean Percentage Change in 2,3-DPG Levels [2]: −15%
Median Percentage Change in 2,3-DPG Levels [2]: −16%
Mean Percentage Change in 2,3-DPG Levels [3]: −13%
Median Percentage Change in 2,3-DPG Levels [3]: −12%
Mean Percentage Change in 2,3-DPG Levels [4]: −18%
Median Percentage Change in 2,3-DPG Levels [4]: −18%
Mean Percentage Change in 2,3-DPG Levels [5]: −20%
Median Percentage Change in 2,3-DPG Levels [5]: −18%
Mean Percentage Change in 2,3-DPG Levels [6]: −29%
Median Percentage Change in 2,3-DPG Levels [6]: −28%
Mean Percentage Change in 2,3-DPG Levels [7]: −43%
Median Percentage Change in 2,3-DPG Levels [7]: −42.0%
Mean Percentage Change in 2,3-DPG Levels [8]: −44%
Median Percentage Change in 2,3-DPG Levels [8]: −44%
Mean Percentage Change in 2,3-DPG Levels [9]: −45%
Median Percentage Change in 2,3-DPG Levels [9]: −45%
Mean Percentage Change in 2,3-DPG Levels [10]: −44%
Median Percentage Change in 2,3-DPG Levels [10]: −44%
Mean Percentage Change in 2,3-DPG Levels [11]: −42%
Median Percentage Change in 2,3-DPG Levels [11]: −44%
Mean Percentage Change in 2,3-DPG Levels [12]: −43%
Median Percentage Change in 2,3-DPG Levels [12]: −44%
Mean Percentage Change in 2,3-DPG Levels [13]: −32%
Median Percentage Change in 2,3-DPG Levels [13]: −35%
Mean Percentage Change in 2,3-DPG Levels [14]: −22%
Median Percentage Change in 2,3-DPG Levels [14]: −20%
Mean Percentage Change in 2,3-DPG Levels [15]: 0%
Median Percentage Change in 2,3-DPG Levels [15]: 0.0%
Mean Percentage Change in 2,3-DPG Levels [16]: −16%
Median Percentage Change in 2,3-DPG Levels [16]: −13%
Mean Percentage Change in 2,3-DPG Levels [17]: −19%
Median Percentage Change in 2,3-DPG Levels [17]: −22%
Mean Percentage Change in 2,3-DPG Levels [18]: −22%
Median Percentage Change in 2,3-DPG Levels [18]: −23%
Mean Percentage Change in 2,3-DPG Levels [19]: −33%
Median Percentage Change in 2,3-DPG Levels [19]: −34%
Mean Percentage Change in 2,3-DPG Levels [20]: −45%
Median Percentage Change in 2,3-DPG Levels [20]: −48%
Mean Percentage Change in 2,3-DPG Levels [21]: −49%
Median Percentage Change in 2,3-DPG Levels [21]: −49%
Mean Percentage Change in 2,3-DPG Levels [22]: −49%
Median Percentage Change in 2,3-DPG Levels [22]: −49%
Mean Percentage Change in 2,3-DPG Levels [23]: −47%
Median Percentage Change in 2,3-DPG Levels [23]: −44%
Mean Percentage Change in 2,3-DPG Levels [24]: −43%
Median Percentage Change in 2,3-DPG Levels [24]: −42%
Mean Percentage Change in 2,3-DPG Levels [25]: −49%
Median Percentage Change in 2,3-DPG Levels [25]: −43%
Mean Percentage Change in 2,3-DPG Levels [26]: −47%
Median Percentage Change in 2,3-DPG Levels [26]: −48%
Mean Percentage Change in 2,3-DPG Levels [27]: −40%
Median Percentage Change in 2,3-DPG Levels [27]: −39%
Mean Percentage Change in 2,3-DPG Levels [28]: −23%
Median Percentage Change in 2,3-DPG Levels [28]: −20%
Mean Percentage Change in 2,3-DPG Levels [29]: 0%
Median Percentage Change in 2,3-DPG Levels [29]: 0.0%
Mean Percentage Change in 2,3-DPG Levels [30]: −20%
Median Percentage Change in 2,3-DPG Levels [30]: −19%
Mean Percentage Change in 2,3-DPG Levels [31]: −22%
Median Percentage Change in 2,3-DPG Levels [31]: −24%
Mean Percentage Change in 2,3-DPG Levels [32]: −31%
Median Percentage Change in 2,3-DPG Levels [32]: −32%
Mean Percentage Change in 2,3-DPG Levels [33]: −39%
Median Percentage Change in 2,3-DPG Levels [33]: −41%
Mean Percentage Change in 2,3-DPG Levels [34]: −47%
Median Percentage Change in 2,3-DPG Levels [34]: −51%
Mean Percentage Change in 2,3-DPG Levels [35]: −57%
Median Percentage Change in 2,3-DPG Levels [35]: −59%
Mean Percentage Change in 2,3-DPG Levels (HV 300 mg BID, Day 14, 6 h after first daily dose): −56%
Mean Percentage Change in 2,3-DPG Levels [36]: −55%
Median Percentage Change in 2,3-DPG Levels [36]: −55%
Mean Percentage Change in 2,3-DPG Levels [37]: −54%
Median Percentage Change in 2,3-DPG Levels [37]: −55%
Mean Percentage Change in 2,3-DPG Levels [38]: −53%
Median Percentage Change in 2,3-DPG Levels [38]: −52%
Mean Percentage Change in 2,3-DPG Levels [39]: −52%
Median Percentage Change in 2,3-DPG Levels [39]: −53%
Mean Percentage Change in 2,3-DPG Levels [40]: −43%
Median Percentage Change in 2,3-DPG Levels [40]: −45%
Mean Percentage Change in 2,3-DPG Levels [41]: −34%
Median Percentage Change in 2,3-DPG Levels [41]: −33%
Mean Percentage Change in 2,3-DPG Levels [42]: 0%
Median Percentage Change in 2,3-DPG Levels [42]: 0.0%
Mean Percentage Change in 2,3-DPG Levels (HV 400 mg QD, Day 1, 6 h after first daily dose): −26%
Mean Percentage Change in 2,3-DPG Levels [43]: −29%
Median Percentage Change in 2,3-DPG Levels [43]: −27%
Mean Percentage Change in 2,3-DPG Levels [44]: −38%
Median Percentage Change in 2,3-DPG Levels [44]: −38%
Mean Percentage Change in 2,3-DPG Levels [45]: −42%
Median Percentage Change in 2,3-DPG Levels [45]: −41%
Mean Percentage Change in 2,3-DPG Levels [46]: −48%
Median Percentage Change in 2,3-DPG Levels [46]: −48%
Mean Percentage Change in 2,3-DPG Levels [47]: −52%
Median Percentage Change in 2,3-DPG Levels [47]: −51%
Mean Percentage Change in 2,3-DPG Levels (HV 400 mg QD, Day 14, 6 h after first daily dose): −54%

From patent US12128035B2, “Activating pyruvate kinase R” (Novo Nordisk Health Care AG, priority 2021, dated 2024)
